Reference: patent publication US20240397947A1 (priority 2021, published 2024)

What was measured:
Format in all cases: in vivo
Xanthomonas orycea = experiment: Comparison of SDHI fungicides on Xanthomonas orycea / rice / preventative (bacterial blight of rice); settings: for Efficacy (%): rice cv. Balilla, preventative spray, 14 days incubation
Description: 3 week old rice plants cv. Balilla were treated with the formulated test compound in a spray chamber. Two days after application rice plants were infected by cutting the upper leaf level and the bacteria suspension applied on the cutting edges. After an incubation period of 14 days at 23° C. and 80% relative humidity, a visual assessment of the disease level was performed.

Xanthomonas campestris = experiment: Effect on Xanthomonas campestris on Zinnia, foliar spray; settings: for Efficacy 12 DAT* (%): 1 spray application, 12 days after treatment, rate per substance as in Table 3
Description: Vegetatively mature zinnia plants were treated with pydiflumetofen treatments by foliar spray (for Xanthomonas or Pseudomonas spp.). One to two days post treatment, the plants were atomized with a bacterial suspension (1×10^8 cfu/mL, determined with a spectrometer) and maintained at 100% relative humidity for 24 to 48 hours to promote infection. The plants were then maintained in a greenhouse or outdoor shade structure and disease incidence and severity recorded, as well as plant health and fresh weight if applicable.

Ralstonia spp. = experiment: Effect on Ralstonia spp. on Geranium, drench, wilt
Description: Vegetatively mature geranium plants were treated with pydiflumetofen treatments by drench (Ralstonia spp.). One to two days post treatment, the inoculum was applied as a soil-drench. The plants were then maintained in a greenhouse or outdoor shade structure and disease incidence and severity were recorded.

Xanthomonas perforans = experiment: Greenhouse test on tomato plants inoculated with Xanthomonas perforans (tomato bacterial spot), injured leaf area; settings: up to 18 days after inoculation
Description: The experiment was carried out in a greenhouse in the Olericulture Sector of the Federal University of Goiás. The location has temperature and humidity control. Tomato seedlings cv. Totalle with two true leaves were transplanted into 1 L pots containing professional growing media. Two days after transplanting, the first application of the substances was carried out. Bion (acibenzolar-S-methyl, 25 g product/ha—12.5 g ai/ha), Miravis (pydiflumetofen, 0.60 kg product/ha—120 g ai/ha), Kocide (copper hydroxide, 1.50 kg product/ha) and Kasumin (kasugamycin, 2 L product/ha) were evaluated. The untreated control received only water. For application, the pots were placed on the floor and spraying was carried out using a spray device (having 6 nozzles with 0.5 m spacing between nozzles) with a pressurized CO2 sprayer and a spray volume of 300 L/ha.
The applications were carried out on days 1, 7 and 14. On day 9 (between the second and third applications), inoculation with a Xanthomonas perforans isolate was performed. The plants were uniformly sprayed once over all leaves with a suspension of the pathogen at a concentration of […] colony forming units per millilitre (cfu/mL). Three evaluations were performed at 6, 13 and 18 days after inoculation (DAI), and the percentage of injured leaf (area of leaf with bacterial spot) area was calculated.

## CC(C)c1ccc(Cl)cc1CN(C(=O)c1c(C(F)F)nn(C)c1F)C1CC1 [Isoflucypram]
Xanthomonas orycea; 6 Mg ai/L
  Efficacy (%): 0%
Xanthomonas orycea; 20 Mg ai/L
  Efficacy (%): 0%
Xanthomonas orycea; 60 Mg ai/L
  Efficacy (%): 0%

## Cn1cc(C(=O)Nc2ccccc2-c2cc(F)c(F)c(F)c2)c(C(F)F)n1 [Fluxapyroxad]
Xanthomonas orycea; 6 Mg ai/L
  Efficacy (%): 0%
Xanthomonas orycea; 20 Mg ai/L
  Efficacy (%): 0%
Xanthomonas orycea; 60 Mg ai/L
  Efficacy (%): 0%

## Cn1cc(C(=O)Nc2cccc3c2[C@@H]2CC[C@H]3C2=C(Cl)Cl)c(C(F)F)n1 (racemic) [Benzovindiflupyr, reference compound]
Xanthomonas campestris
  Efficacy 12 DAT* (%): 63%

## CON(C(=O)c1cn(C)nc1C(F)F)C(C)Cc1c(Cl)cc(Cl)cc1Cl (centres unmarked) [Pydiflumetofen, 3-(difluoromethyl)-N-methoxy-1-methyl-N-[1-methyl-2-(2,4,6-trichloro-phenyl)ethyl]-1H-pyrazole-4-carboxamide]
Ralstonia spp.
  control or suppression of Ralstonia spp. (in words): control or suppression
Ralstonia spp.; 14 DAT
  % Wilt 14 DAT: 3.5%
  % efficacity vs. inoculated check, 14 DAT: 84%
Ralstonia spp.; 28 DAT
  % Wilt 28 DAT: 18%
  % efficacity vs. inoculated check, 28 DAT: 87%
Xanthomonas orycea; 6 mg ai/L
  control of Xanthomonas orycea (in words): marginal effect
Xanthomonas orycea; 20 to 60 mg ai/L
  control of Xanthomonas orycea (in words): good control
Xanthomonas orycea; 6 Mg ai/L
  Efficacy (%): 13%
Xanthomonas orycea; 20 Mg ai/L
  Efficacy (%): 72%
Xanthomonas orycea; 60 Mg ai/L
  Efficacy (%): 99%
Xanthomonas campestris
  Efficacy 12 DAT* (%): 84%
Xanthomonas campestris; spray
  control of Xanthomonas campestris (in words): good control
Xanthomonas perforans
  control of Xanthomonas perforans (in words): good control

## O=C(Nc1ccccc1-c1ccc(Cl)cc1)c1cccnc1Cl [Boscalid]
Xanthomonas orycea; 6 Mg ai/L
  Efficacy (%): 0%
Xanthomonas orycea; 20 Mg ai/L
  Efficacy (%): 0%
Xanthomonas orycea; 60 Mg ai/L
  Efficacy (%): 0%
